Reference: US20040197268A1, “Method of imaging amyloid deposits using substituted rhodanine derivatives” (priority 1999, published 2004)
Several values for one entry are separate records, joined by “and”; a condition that tells them apart may be missing. Equal entries are not always repeated. Structures can show the parent of a compound that is named as a salt.

Legend:
[1] = target: T1, beta amyloid peptide Aβ(1-40) (Homo sapiens, UniProt P05067); test: BAPA (Beta-Amyloid Peptide Aggregation), pH 6.0; format: biochemical; conditions: Aβ(1-40) 33 μM, pH 6.0, 2 to 4 hours at room temperature, filtration
T1 construct: 0.5 mg/mL AP (140) peptide in 20% HFIP+0.1 μL/assay radioiodinated ^125I Aβ(1-40)
Experimental: BAPA (Beta-Amyloid Peptide Aggregation)
This assay is used to provide a measure of inhibition by a compound against the aggregation behavior of the beta amyloid peptide.
The purpose of this assay is to provide a higher volume method of assaying the amount of beta amyloid aggregation using an endpoint assay based on filtration. In this assay, hexafluoroisopropanol (HFIP) is used to break down the initial amyloid peptide to a monomer state and use a concentration of 33 μM which is high enough so that aggregation will occur at pH 6.0 in several hours.
β-Amyloid Peptide Aggregation, pH 6.0 (BAPA)
In a 96-well plate (Costar 3794), we add […] 50 mM Phosphate Buffer, pH 6.0, 10 μL 0.5 mg/mL AP (140) peptide in 20% HFIP+0.1 μL/assay radioiodinated ^125I Aβ(1-40) [^125I Aβ(1-40)], and 1 μL of the compound to be tested starting at 50 mM with a concentration of DMSO <1%. Then, we incubate for 2 to 4 hours at room temperature. We stop the reaction with […] of 50 mM phosphate buffer, pH 6.0, and filter it through a 0.2 μm 96-well filter plate (Millipore MAGU N22). We wash the filter plate with 100 μL of the same phosphate buffer. Aggregation was detected on a Microbeta counter after impregnating the filters with Meltilex (1450-441) and is corrected for background.

Aβ(1-42) = target: T2, Aβ(1-42) (Homo sapiens, UniProt P05067); test: BATYM Assay (Aβ(1-42) aggregation, Thioflavin T fluorescence); format: biochemical; conditions: Aβ 1-42 final concentration 100 μM, PBS pH 7.4, 37° C., 1 day, ThT fluorescence
T2 construct: Required Aβ(1-42)(California Peptide) was dried from its hexafluoroisopropanol (HFIP) stock solution; purchased California Peptide
Experimental: Required Aβ(1-42)(California Peptide) was dried from its hexafluoroisopropanol (HFIP) stock solution. The Aβ(1-42) was dissolved in dimethylsulfoxide (DMSO) and then mixed with phosphate buffered saline, (PBS) (pH 7.4). The mixed Aβ(1-42) solution was filtered with a 0.2 μm Omnipore membrane syringe filter (Millipore, Bedford, Mass.). The compound to be tested in DMSO (50 times concentrate) was put into each well (0.5 μL/well) of a 96-well plate. The Aβ(1-42) solution was added into each well (24.5 μL/well). The plate was centrifuged at 1,000 g for 5 minutes and incubated at 37° C. for 1 day (Aβ 1-42; final concentration 100 μM).
After incubation Thioflavin T (ThT) (30 μM) solution in glycine-NaOH buffer (pH 8.5, 50 mM) was added into each well (250 μL/well), fluorescence was measured (ex. 440/20 nm; em 485/20 nm) using a fluorescence plate reader. The inhibitory activity was calculated as the reduction of fluorescence with the following formula:
inhibition (%)={(F(Aβ)−F(Aβ+compound)}/{F(Aβ)−F(solvent+compound)}×100
The IC50s were calculated by a curve fitting program using the following equation. The data were obtained from two different experiments in triplicate.
x=concentration of tested compound (M),

Aβ(1-40) [2] = target: T3, Aβ(1-40) (Homo sapiens, UniProt P05067); test: BASSR (Beta-Amyloid Self-Seeding Radioassay), inhibitors of self-seeded amyloid fibril growth; format: biochemical; conditions: 30 μM soluble Aβ(1-40) + 125I-labeled Aβ(1-40), pH 7.5, 37° C., 3 to 5 hours, filtration
T3 construct: Soluble Aβ(1-40) peptide (Bachem, Torrance, Calif.); purchased Bachem, Torrance, Calif
Experimental: BASSR (Beta-Amyloid Self-Seeding Radioassay)
(§1) An assay for inhibitors of self-seeded amyloid fibril growth
Assay Buffer—50 mM sodium phosphate, pH 7.5, 100 mM NaCl, 0.02% NaN3, 1 M urea (filter and store at 4° C.)
Soluble Aβ(1-40) peptide (Bachem, Torrance, Calif.)—2.2 mg/mL in deionized H2O (stored in aliquots at −20° C., keep on ice when thawed) will self-seed after 1 week storage. Typically, the solution should be stored until no lag phase is seen in the assay.
^125I-labeled Aβ(1-40)—150K-350K cpm/μL in 100% acetonitrile—0.1% trifluoroacetic acid (TFA)—1% β-mercaptoethanol (aliquots stored at −20° C.). ^125I-labeled Aβ(1-40) can be made in accordance with the procedure set forth by H. Levine, III in Neurobiol. Aging, 16:755 (1995), which is hereby incorporated by reference, or this reagent may be purchased from Amersham, Arlington Heights, Ill.
Final assay conditions: 30 μM soluble Aβ(1-40) in deionized water in assay buffer+20-50K cpm ^125I-labeled Aβ(1-40) per assay. Compound to be tested is dissolved in dimethylsulfoxide (DMSO), typically 5-50 mM stock, such that the final concentration of DMSO is <1% v/v in the assay.
Assay: Reaction mixture for 50 assays (on ice) is comprised of 0.1-0.2 μL of […] ^125I-labeled Aβ(1-40)+1 μL of soluble Aβ(1-40)+13.5 μL assay buffer per assay. The following are the amounts of the components of the reaction mixture sufficient for 50 assay wells.
1) Prepare reaction mixture above by mixing components and storing on ice.
2) Pipet 14.5 μL of reaction mixture into each of 50 wells on a polypropylene U-bottom 96-well microtiter plate on ice (Costar 3794).
(§2) 3) Add 1.7 μL of diluted compound to be tested to each well in a column of eight, including solvent control. Serial 3-fold dilutions from 1 mM (100 μM final) in assay buffer−urea=7 dilutions+zero. Each 96-well plate can therefore accommodate 11 samples+1 Congo Red control (0.039-5 μM final in 2-fold steps).
4) Seal the plate with aluminum film (Beckman 538619) and incubate for 10 minutes on ice.
5) Raise the temperature to 37° C. and incubate for 3 to 5 hours (depending on the lot of the peptide).
6) Remove the aluminum film and add 200 μL/well of ice cold assay buffer with urea, collecting the radiolabeled fibrils by vacuum filtration through 0.2 μm pore size GVWP filters in 96-well plates (Millipore MAGV N22, Bedford, Mass.). Determine the radioactivity of the filters using standard methods well-known to those skilled in the art.

Aβ(1-40) [3] = target: T3, Aβ(1-40); test: BASST (Beta-Amyloid Self-Seeding, ThioflavinT), inhibitors of self-seeded amyloid fibril growth; format: biochemical; conditions: 30 μM soluble Aβ(1-40), pH 7.5, 37° C., 3 to 5 hours, thioflavin T fluorescence
Experimental: BASST (Beta-Amyloid Self-Seeding, ThioflavinT)
as §1
Assay Buffer—50 mM sodium phosphate, pH 7.5, 100 mM NaCl, 0.02% NaN3, 1 M urea (filter and store at 4° C.).
Soluble Aβ(1-40)—2.2 mg/mL in deionized H2O (store in aliquots at −20° C., keep on ice when thawed) will self-seed after 1 week storage. Typically, the solution should be stored until no lag phase is seen in the assay.
Final assay conditions: 30 μM soluble Aβ(1-40) in deionized water in assay buffer. Compound to be tested is dissolved in DMSO, typically 5-50 mM stock, such that the final concentration of DMSO is <1% v/v in the assay.
Assay: Reaction mixture for 50 assays (on ice) comprised of 1 μL of soluble Aβ(1-40)+13.5 μL assay buffer per assay. The following are the amounts of the components of the reaction mixture that result in each of the 50 assay wells.
1) Prepare the reaction mix above by mixing the components and storing on ice.
2) Pipet […] of reaction mixture into each of 50 wells of a polystyrene U-bottom 96-well microtiter plate (Corning 25881-96) on ice.
as §2, with “[…]” for “μL”
4) Seal the plate with aluminum film and incubate for 10 minutes on ice.
5) Raise the temperature to 37° C. and incubate for 3 to 5 hours (depends on the lot of the peptide).
6) Remove the aluminum film and add 250 μL/well of 5 μM thioflavin T (ThT) [T-3516, Sigma-Aldrich] in 50 mM glycine-NaOH, pH 8.5. Read fluorescence on a plate reader (ex=440 nm/20 nm; em=485 nm/20 nm) within 5 minutes.

T1 sequence (P05067 672-711 limits assumed): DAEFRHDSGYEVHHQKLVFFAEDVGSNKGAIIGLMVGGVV
T3 sequence (P05067 672-711 limits assumed): as above
T2 sequence (P05067 672-713 limits assumed): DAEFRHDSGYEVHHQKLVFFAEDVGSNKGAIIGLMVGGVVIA

Molecule	melting point [°C]	IC50 [1] [µM]	IC50 (Aβ(1-42)) [µM]	IC50 (Aβ(1-40) [2])	IC50 (Aβ(1-40) [3])
CCCCCCN(C)c1ccc(/C=C2\SC(=S)N(CCS(=O)(=O)O)C2=O)cc1 (as salt: sodium) [Example 1, (Z) 2-{5[4-(Hexyl-methyl-amino)benzylidene] 4-oxo-2-thioxo-thiazolidin-3-yl}-ethanesulfonic acid]	> 250	–	–	–	–
CCCCCCN(C)c1ccc(/C=C2\SC(=S)N(CCS(=O)(=O)O)C2=O)cc1 [Example 1, (Z) 2-{5[4-(Hexyl-methyl-amino)benzylidene] 4-oxo-2-thioxo-thiazolidin-3-yl}-ethanesulfonic acid]	–	23	1.72	> 100 µM	1 µM
CCCCCCN(C)c1ccc(/C=C2\SC(=S)N(CCS(=O)(=O)NC)C2=O)cc1 [Example 2, (Z) 2-{5-[4-(Hexyl-methyl-amino)-benzylidene]-4-oxo-2-thioxo-thiazolidin-3-yl}-ethanesulfonic acid methylamide]	147 to 149	7	2.32	> 100 µM	0.8 µM
CCCCCCN(C)c1ccc(/C=C2\SC(=S)N(CCNC(C)=O)C2=O)cc1 [Example 14]	–	30	> 100	> 100 µM	0.22 µM
CCCCCCN(C)c1ccc(/C=C2\SC(=S)N(CS(=O)(=O)O)C2=O)cc1 [Example 15, (Z) {5-[4-(n-Hexylmethylamine)-benzylidene]-4-oxo-2-thioxo-thiazolidin-3-yl}-methanesulfonic acid]	–	8	3.39	> 100 µM	> 100 µM
CCCCN(CCCC)c1ccc(/C=C2\SC(=S)N(Cc3nnn[nH]3)C2=O)cc1 [Example 20, (Z) 5-(4-Dibutylamino-benzylidene)-3(H-tetrazol-5-ylmethyl)-2-thioxo-thiazolidin-4-one]	–	> 100	2.04	–	2 µM
CCCCN(CCCC)c1ccc(/C=C2\SC(=S)N(CC(=O)NS(C)(=O)=O)C2=O)cc1 [Example 21, (Z) N-{2-[5-(4-Dibutylamino-benzylidene)-4-oxo-2-thioxo-thiazolidin-3-yl]-acetyl}-methanesulfonamide]	219 to 222	> 100	2.91	> 100 µM	–
O=C(CN1C(=O)/C(=C/c2ccc(N3CC[C@@H]4CCCC[C@H]4C3)cc2)SC1=S)NS(=O)(=O)c1ccccc1 [Example 24, (Z) N-(2-{5-[(4aS,8aR)-4(Octahydro-isoquinolin-2-yl)benzylidene]-4-oxo-2-thioxo-thiazolidin-3-yl}-acetyl)-benzenesulfonamide]	222	–	3.84	6.5 µM and 10 µM and 6 µM	1 µM and 0.8 µM
CCCCN(CCCC)c1ccc(/C=C2\SC(=S)N(CC(=O)NS(=O)(=O)c3ccc(F)cc3)C2=O)cc1 [Example 25, (Z) N-{2-[5-(4-Dibutylamino-benzylidene)-4-oxo-2-thioxo-thiazolidin-3-yl]-acetyl}-4-fluoro-benzenesulfonamide]	125	–	2.38	6 µM	0.6 µM and 0.5 µM
CCCCN(CCCC)c1ccc(/C=C2\SC(=S)N(CCS(=O)(=O)NC(=O)c3ccc(F)cc3)C2=O)cc1 [Example 26, (Z) 2-[5-(4-Dibutylamino-benzytidene)-4-oxo-2-thioxo-thiazolidin-3-yl]-ethanesulfonic acid 4-fluoro-benzoylamide]	191 to 192	–	2.14	6.1 µM and 10 µM	–
O=C1/C(=C/c2ccc(N3CCC4CCCCC4C3)cc2)SC(=S)N1Cc1cc(=O)c(O)co1 (stereo not drawn) [Example 32, (Z) 3-(5-Hydroxy-4-oxo-4H-pyran-2-ylmethyl)-5-[4-(octahydro-isoquinolin-2-yl)benzylidene]-2-thioxo-thiazolidin-4-one]	–	46	2.55	> 100 µM	1 µM
CCCC1CCN(c2ccc(/C=C3\SC(=S)N(Cc4nnn[nH]4)C3=O)cc2)CC1 [Example 35]	–	> 60	3.31	15 µM	0.4 µM
(Z) 2-[5-(4-Hexyl-methyl-amino-benzylidene)-4-oxo-2-thioxo-thiazolidin-3-yl]-ethanesulfonic acid 4-fluoro-benzoylamide [Example 40]	–	–	2.84	–	–
